Assay results as given in patent EP4660185A1, “NAV1.7- AND/OR NAV1.8-INHIBITING AMIDES, PROCESSES FOR THE PREPARATION THEREOF, COMPOSITIONS, USES, METHODS FOR TREATMENT USING SAME, AND KITS” (Eurofarma Laboratórios S.A., priority 2023, dated 2024).

How the values were obtained:
[1] = biological target: T1, human sodium channels Nav 1.8 (Homo sapiens, UniProt Q9Y5Y9); assay: Automated whole-cell voltage-clamp (ScreenPatch 384P) sodium current block, Nav 1.8; type: cell-based; conditions: CHO cells stably expressing human Nav 1.8; holding -100 mV, inactivation step -40 mV for 8 seconds, test step 10 mV (TP1A); exposure at least five minutes, room temperature; mean where tested in two or more assays; read-out: Nav1.8 IC50
T1 construct: expressed in transfected cells
T1 sequence (Q9Y5Y9 whole entry): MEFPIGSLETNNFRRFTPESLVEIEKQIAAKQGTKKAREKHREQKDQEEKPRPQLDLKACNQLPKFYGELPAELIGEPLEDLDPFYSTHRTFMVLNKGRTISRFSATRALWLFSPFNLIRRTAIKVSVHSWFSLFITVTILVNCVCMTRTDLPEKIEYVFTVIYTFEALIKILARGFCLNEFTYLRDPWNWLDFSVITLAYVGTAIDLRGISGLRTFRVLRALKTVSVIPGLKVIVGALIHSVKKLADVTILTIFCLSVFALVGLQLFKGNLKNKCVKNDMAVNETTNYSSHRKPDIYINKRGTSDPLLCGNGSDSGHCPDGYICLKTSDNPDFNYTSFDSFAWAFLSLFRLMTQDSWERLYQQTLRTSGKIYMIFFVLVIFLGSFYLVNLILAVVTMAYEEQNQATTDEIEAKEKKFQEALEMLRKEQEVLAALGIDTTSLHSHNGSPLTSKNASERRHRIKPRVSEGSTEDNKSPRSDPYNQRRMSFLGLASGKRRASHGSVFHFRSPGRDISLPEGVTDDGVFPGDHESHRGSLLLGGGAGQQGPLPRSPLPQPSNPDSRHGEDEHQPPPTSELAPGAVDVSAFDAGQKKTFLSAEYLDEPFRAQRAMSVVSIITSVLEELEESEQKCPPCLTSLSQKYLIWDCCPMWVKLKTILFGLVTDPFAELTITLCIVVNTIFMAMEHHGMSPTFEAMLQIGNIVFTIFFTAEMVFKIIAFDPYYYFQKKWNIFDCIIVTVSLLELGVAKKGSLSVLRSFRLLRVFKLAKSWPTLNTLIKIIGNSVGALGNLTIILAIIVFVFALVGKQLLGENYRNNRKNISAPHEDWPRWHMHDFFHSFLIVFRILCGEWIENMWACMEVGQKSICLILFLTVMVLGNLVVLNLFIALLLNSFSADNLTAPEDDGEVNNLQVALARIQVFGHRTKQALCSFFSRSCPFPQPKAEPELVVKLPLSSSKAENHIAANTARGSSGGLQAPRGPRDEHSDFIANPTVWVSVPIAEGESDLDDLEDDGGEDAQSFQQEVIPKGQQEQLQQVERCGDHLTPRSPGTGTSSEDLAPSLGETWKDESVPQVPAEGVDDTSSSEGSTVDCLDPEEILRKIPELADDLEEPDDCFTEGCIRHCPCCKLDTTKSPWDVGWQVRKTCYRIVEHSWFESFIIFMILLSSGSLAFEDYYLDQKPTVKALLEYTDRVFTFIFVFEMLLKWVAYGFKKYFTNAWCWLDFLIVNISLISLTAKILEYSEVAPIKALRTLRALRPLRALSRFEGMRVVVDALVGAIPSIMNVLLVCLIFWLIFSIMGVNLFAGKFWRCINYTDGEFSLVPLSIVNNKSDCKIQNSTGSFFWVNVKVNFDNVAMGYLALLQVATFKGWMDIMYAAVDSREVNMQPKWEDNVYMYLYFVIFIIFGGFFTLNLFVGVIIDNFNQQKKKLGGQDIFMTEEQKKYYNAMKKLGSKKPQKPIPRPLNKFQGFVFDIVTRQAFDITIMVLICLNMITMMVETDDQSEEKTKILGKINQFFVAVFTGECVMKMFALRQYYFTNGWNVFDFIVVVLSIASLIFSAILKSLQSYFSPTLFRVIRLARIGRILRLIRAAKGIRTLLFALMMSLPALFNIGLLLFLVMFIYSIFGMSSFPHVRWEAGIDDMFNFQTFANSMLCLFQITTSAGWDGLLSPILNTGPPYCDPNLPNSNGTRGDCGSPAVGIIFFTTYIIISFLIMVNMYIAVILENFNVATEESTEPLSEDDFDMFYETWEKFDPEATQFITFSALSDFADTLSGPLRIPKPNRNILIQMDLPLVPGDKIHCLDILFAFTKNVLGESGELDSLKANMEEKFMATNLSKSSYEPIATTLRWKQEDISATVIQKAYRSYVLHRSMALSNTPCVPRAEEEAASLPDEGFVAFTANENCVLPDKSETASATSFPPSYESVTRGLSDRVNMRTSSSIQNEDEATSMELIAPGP
Description: (§1) Biological assays were performed on Chinese hamster ovary (CHO) cells that express human sodium channels Nav 1.8 or Nav 1.7 in a stable manner.
(§2) The experimental protocol voltage-clamp using the whole cell configuration was established on the automated ScreenPatch® 384P platform (SP384PE, Nanion Technologies, Livingston, NJ) and the results were recorded with a Nanion 384-well Patch Clamp chip (NPC) (Nanion Technologies, Livingston, NJ).
(§3) Compounds of Formula Ia and Formula Ib were diluted in eight concentrations in the extracellular solution composed of saline solution, buffered with HEPES (mM): NaCl, 137; KCl, 4; CaCl2, 3,8; MgCl2, 1; HEPES, 10; Glucose, 10; pH 7.4. The […], 50; CsF, 90; MgCl2, 5; EGTA, 5; HEPES, 10; pH 7.2. The duration of exposure of each compound with cells expressing Nav 1.7 or Nav 1.8 was at least five minutes, and the assays were performed at room temperature.
(§4) The measurements of the sodium currents of Nav 1.8 and Nav 1.7 were obtained using the voltage protocol described below: A holding voltage of -100 mV was established followed by an inactivation voltage step at -40 mV for 8 seconds, followed by a step of -100 mV for 20 ms, followed by a 20 ms step for 10 mV for Nav 1.8 or 0 mV for Nav 1.7 (TP1A) before returning to the holding voltage of -100 mV.
(§5) The protocol was repeated at a frequency of 0.05 Hz and the amplitude of the current was quantified throughout the recording of the TP1A phase. The variation in the amplitude of the peak current was evaluated according to the formula described below, after exposing the cells expressing the channels to each concentration of the different compounds: % Block = (1−(ITP1A,molecule/ITP1A,basal)×100%, [formula] wherein ITP1A,basal and ITP1A,molecule represent the peaks of sodium current input into TP1A before exposure to the compound and in the presence of the compound, respectively.
(§6) Data were obtained by nonlinear regression (nonlinear least squares) with XLfit for Excel (Microsoft, Redmond, WA).
(§7) The compounds were tested in at least one assay to obtain the value of CI50. For compounds that were tested in two or more assays, the results are described as the mean of the CI50 values.

[2] = biological target: T2, human sodium channels Nav 1.7 (Homo sapiens, UniProt Q15858); assay: Automated whole-cell voltage-clamp (ScreenPatch 384P) sodium current block, Nav 1.7; type: cell-based; conditions: CHO cells stably expressing human Nav 1.7; holding -100 mV, inactivation step -40 mV for 8 seconds, test step 0 mV (TP1A); exposure at least five minutes, room temperature; mean where tested in two or more assays; read-out: Nav1.7 IC50
T2 construct: expressed in transfected cells
T2 sequence (Q15858 whole entry): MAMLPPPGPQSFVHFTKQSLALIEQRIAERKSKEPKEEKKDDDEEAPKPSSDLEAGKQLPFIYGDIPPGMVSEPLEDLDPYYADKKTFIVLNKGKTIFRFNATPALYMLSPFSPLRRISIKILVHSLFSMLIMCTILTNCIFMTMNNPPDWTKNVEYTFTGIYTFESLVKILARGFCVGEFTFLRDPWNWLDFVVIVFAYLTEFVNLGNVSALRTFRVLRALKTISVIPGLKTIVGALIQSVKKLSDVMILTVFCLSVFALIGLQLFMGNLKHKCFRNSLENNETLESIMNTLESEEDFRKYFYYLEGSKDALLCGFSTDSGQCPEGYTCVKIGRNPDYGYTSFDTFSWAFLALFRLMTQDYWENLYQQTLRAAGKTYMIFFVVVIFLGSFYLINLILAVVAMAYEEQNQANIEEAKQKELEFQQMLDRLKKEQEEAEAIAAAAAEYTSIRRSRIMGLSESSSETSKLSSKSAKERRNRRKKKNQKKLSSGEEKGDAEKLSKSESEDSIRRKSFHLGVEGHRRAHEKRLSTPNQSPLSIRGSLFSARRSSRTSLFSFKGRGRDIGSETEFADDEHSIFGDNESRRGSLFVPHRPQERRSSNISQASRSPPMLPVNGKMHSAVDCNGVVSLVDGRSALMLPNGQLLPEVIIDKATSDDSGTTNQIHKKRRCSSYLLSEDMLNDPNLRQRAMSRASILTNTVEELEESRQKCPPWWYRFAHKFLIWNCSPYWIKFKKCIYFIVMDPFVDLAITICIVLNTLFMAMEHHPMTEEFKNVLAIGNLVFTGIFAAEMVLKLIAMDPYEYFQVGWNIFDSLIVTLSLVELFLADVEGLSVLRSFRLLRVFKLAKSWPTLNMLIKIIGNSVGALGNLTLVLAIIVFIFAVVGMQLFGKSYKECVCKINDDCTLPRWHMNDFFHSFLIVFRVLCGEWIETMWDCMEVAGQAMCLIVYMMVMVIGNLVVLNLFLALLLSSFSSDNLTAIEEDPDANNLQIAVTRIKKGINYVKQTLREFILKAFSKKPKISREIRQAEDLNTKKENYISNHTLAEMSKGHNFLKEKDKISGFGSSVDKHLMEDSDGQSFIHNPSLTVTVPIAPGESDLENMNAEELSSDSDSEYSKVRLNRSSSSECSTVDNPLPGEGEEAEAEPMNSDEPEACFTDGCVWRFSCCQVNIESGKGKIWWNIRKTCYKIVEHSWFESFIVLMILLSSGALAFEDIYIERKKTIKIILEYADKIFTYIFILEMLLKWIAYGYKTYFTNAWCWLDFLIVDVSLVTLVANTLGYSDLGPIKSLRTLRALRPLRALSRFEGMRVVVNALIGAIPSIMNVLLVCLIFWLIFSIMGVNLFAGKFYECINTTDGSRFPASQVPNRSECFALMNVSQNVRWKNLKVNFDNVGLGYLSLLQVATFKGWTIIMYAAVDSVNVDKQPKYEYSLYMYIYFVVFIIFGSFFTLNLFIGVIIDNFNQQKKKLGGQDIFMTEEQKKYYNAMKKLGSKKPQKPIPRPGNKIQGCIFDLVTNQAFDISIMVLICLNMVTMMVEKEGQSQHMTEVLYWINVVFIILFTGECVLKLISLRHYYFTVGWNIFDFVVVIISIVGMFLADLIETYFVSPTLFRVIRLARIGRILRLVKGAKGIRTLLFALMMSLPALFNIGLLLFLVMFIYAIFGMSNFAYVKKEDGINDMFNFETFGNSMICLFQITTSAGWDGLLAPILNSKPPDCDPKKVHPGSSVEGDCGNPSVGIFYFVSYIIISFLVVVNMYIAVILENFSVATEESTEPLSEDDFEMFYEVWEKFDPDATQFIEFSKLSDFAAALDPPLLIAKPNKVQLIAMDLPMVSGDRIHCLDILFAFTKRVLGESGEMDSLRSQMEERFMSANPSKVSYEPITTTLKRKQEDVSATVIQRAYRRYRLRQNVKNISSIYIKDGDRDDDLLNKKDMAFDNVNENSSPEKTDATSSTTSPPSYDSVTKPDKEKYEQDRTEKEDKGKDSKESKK
Description: as §1, §2, §3, §4, §5, §6, §7

Row | Compound | IC50 [1] [µM] | IC50 [2] [µM]
1 | CCOc1ccc(-c2cc(C(=O)NCCc3cc(OC)cnc3F)cnn2)cn1 [compound 111] | > 1 | > 1
2 | [2H]C([2H])([2H])Oc1ccc(-c2cncc(C(=O)NCCc3cc(OC)cnc3F)n2)cc1 [compound 94] | < 0.5 | > 1
3 | COc1cc(CCNC(=O)c2cncc(-c3ccc(OC(F)F)cc3)n2)cc(OC)c1 [compound 2] | < 0.5 | 0.5 to 1
4 | CCOc1ccc(-c2cncc(C(=O)N(C)c3cc4c(F)ccc(OC)c4[nH]3)n2)cn1 [compound 71] | > 1 | > 1
5 | CCOc1ccc(-c2cncc(C(=O)Nc3cc4c(OC)cccc4[nH]3)n2)cc1 [compound 60] | < 0.5 | 0.5 to 1
6 | CCOc1ccc(-c2cncc(C(=O)NCCc3cccc(C(C)O)c3)n2)cc1 (centres unmarked) [compound 13] | < 0.5 | > 1
7 | CCOc1ccc(-c2cncc(C(=O)NCCc3ccccc3F)n2)cc1 [compound 6] | < 0.5 | < 0.5
8 | CCOc1ccc(-c2ccnc(C(=O)NCCc3cc(OC)cnc3F)n2)cn1 [compound 115] | > 1 | > 1
9 | CCOc1ccc(-c2cncc(C(=O)NCCc3cc(C(C)O)ccc3F)n2)cn1 (centres unmarked) [compound 43] | < 0.5 | 0.5 to 1
10 | CCOc1ccc(-c2cncc(C(=O)NCCc3cc(OC)cnc3C)n2)cc1 [compound 18] | < 0.5 | > 1
11 | [2H]C([2H])([2H])Oc1ccc(-c2cncc(C(=O)NCCc3cc(OC)cc(OC)c3)n2)cc1 [compound 95] | < 0.5 | > 1
12 | COc1cnc(F)c(CCNC(=O)c2cncc(-c3ccc(C(C)(C)O)cc3)n2)c1 [compound 56] | > 1 | > 1
13 | CCOc1ccc(-c2cncc(C(=O)NCCc3cc(OC)cc(C(C)O)c3)n2)cn1 (centres unmarked) [compound 40] | > 1 | > 1
14 | CCOc1ccc(-c2cncc(C(=O)NCCc3cc(OC)cnc3F)n2)cn1 [compound 34] | < 0.5 | 0.5 to 1
15 | CCOc1ccc(-c2cc(C(=O)NCCc3cc(OC)cnc3F)ccn2)cc1 [compound 104] | > 1 | > 1
16 | CCOc1ccc(-c2cncc(C(=O)Nc3cc4c(OC)cccc4[nH]3)n2)cn1 [compound 73] | > 1 | > 1
17 | CCOc1ccc(-c2cncc(C(=O)Nc3nc4c(F)ccc(OC)c4s3)n2)cn1 [compound 61] | > 1 | > 1
18 | CCOc1ccc(-c2cncc(C(=O)NCCc3cc(OC)cnc3F)c2)cn1 [compound 113] | > 1 | > 1
19 | CCOc1ccc(-c2cncc(C(=O)N[C@@H]3Cc4c(OC)cnc(F)c4C3)n2)cn1 [compound 84] | < 0.5 | > 1

Row | Compound | IC50 [1] [µM] | IC50 [2] [µM]
20 | CCOc1ccc(-c2cc(C(=O)NCCc3cc(OC)cnc3F)cnn2)cc1 [compound 100] | > 1 | > 1
21 | CCOc1ccc(-c2cncc(C(=O)N[C@@H]3CCc4c(OC)ccc(F)c4C3)n2)cn1 [compound 79] | 0.5 to 1 | 0.5 to 1
22 | [2H]C([2H])([2H])Oc1ccc(-c2cncc(C(=O)NCCc3ccccc3F)n2)cn1 [compound 89] | < 0.5 | > 1
23 | COc1cnc(F)c(CCNC(=O)c2cncc(-c3ccc(C(C)O)cc3)n2)c1 (centres unmarked) [compound 59] | > 1 | > 1
24 | CCOc1ccc(-c2cncc(C(=O)NCCc3cc(OC)cnc3F)c2)cc1 [compound 102] | > 1 | > 1
25 | COc1cnc(F)c(CCNC(=O)c2cncc(-c3ccc(OC)nc3)n2)c1 [compound 53] | < 0.5 | 0.5 to 1
26 | CCOc1ccc(-c2ccnc(C(=O)NCCc3cc(OC)cnc3F)c2)cn1 [compound 114] | > 1 | > 1
27 | O=C(NCCc1ccccc1F)c1cncc(-c2ccc(OC(F)F)nc2)n1 [compound 47] | > 1 | > 1
28 | CCOc1ccc(-c2cncc(C(=O)NCCc3cc(C(C)O)cnc3F)n2)cc1 (centres unmarked) [compound 14] | > 1 | > 1
29 | CCOc1ccc(-c2cncc(C(=O)NCCc3cc(OC)cc(OC)c3)n2)c(C)c1 [compound 4] | < 0.5 | < 0.5
30 | COc1cc(CCNC(=O)c2cncc(-c3ccc(OC(C)C)cc3)n2)cc(OC)c1 [compound 1] | 0.5 to 1 | > 1
31 | CCOc1ccc(-c2cncc(C(=O)Nc3cc4c(OC)ccc(F)c4n3C)n2)cn1 [compound 75] | > 1 | > 1
32 | COc1ccc(-c2cncc(C(=O)NCCc3ccccc3F)n2)cn1 [compound 48] | > 1 | > 1
33 | CCOc1ccc(-c2cncc(C(=O)NCCc3cccc(OC)c3)n2)cn1 [compound 45] | < 0.5 | 0.5 to 1
34 | CCOc1ccc(-c2ccnc(C(=O)NCCc3cc(OC)cnc3F)c2)cc1 [compound 105] | > 1 | < 0.5
35 | CCOc1ccc(-c2ccnc(C(=O)NCCc3cc(OC)cnc3F)n2)cc1 [compound 107] | 0.5 to 1 | > 1
36 | COc1cnc(F)c(CCNC(=O)c2cncc(-c3ccc(C(C)(C)O)nc3)n2)c1 [compound 57] | > 1 | > 1
37 | CCOc1ccc(-c2cncc(C(=O)Nc3cc4c(F)ccc(OC)c4n3C)n2)cn1 [compound 70] | > 1 | > 1
38 | CCOc1ccc(-c2cc(C(=O)NCCc3cc(OC)cnc3F)ccn2)cn1 [compound 109] | > 1 | > 1

Row | Compound | IC50 [1] [µM] | IC50 [2] [µM]
39 | CCOc1ccc(-c2cncc(C(=O)NCCc3cc(C(C)O)ccc3F)n2)cc1 (centres unmarked) [compound 15] | < 0.5 | > 1
40 | CCOc1ccc(-c2nccc(C(=O)NCCc3cc(OC)cnc3F)n2)cc1 [compound 106] | > 1 | > 1
41 | COc1cnc(F)c(CCNC(=O)c2cncc(-c3ccc(OC(F)F)cc3)n2)c1 [compound 50] | > 1 | > 1
42 | CCOc1ccc(-c2cncc(C(=O)NC[C@H](N)c3cc(OC)cc(OC)c3)n2)cc1 [compound 26] | > 1 | > 1
43 | CCOc1ccc(-c2cncc(C(=O)NCCc3cc(OC)cc(OC)c3)n2)cn1 [compound 44] | > 1 | > 1
44 | CCOc1ccc(-c2cncc(C(=O)NC[C@@H](N)c3cc(OC)cc(OC)c3)n2)cc1 [compound 27] | < 0.5 | < 0.5
45 | CCOc1ccc(-c2cnnc(C(=O)NCCc3cc(OC)cnc3F)c2)cc1 [compound 101] | > 1 | > 1
46 | COc1ccc(-c2cncc(C(=O)NCCc3cc(OC)cnc3F)n2)cc1 [compound 52] | < 0.5 | > 1
47 | CCOc1ccc(-c2cccc(C(=O)NCCc3cc(OC)cnc3F)n2)cc1 [compound 103] | > 1 | > 1
48 | CCOc1ccc(-c2cncc(C(=O)Nc3cc4c(F)ccc(OC)c4[nH]3)n2)cn1 [compound 69] | < 0.5 | > 1
49 | CCOc1ccc(-c2cncc(C(=O)Nc3nc4c(OC)ccc(F)c4n3C)n2)cn1 [compound 66] | > 1 | > 1
50 | CCOc1ccc(-c2cncc(C(=O)NCCc3cc(OC)cnc3F)n2)cc1 [compound 16] | < 0.5 | > 1
51 | CCOc1ccc(-c2cncc(C(=O)Nc3cc4c(OC)ccc(F)c4[nH]3)n2)cn1 [compound 74] | < 0.5 | 0.5 to 1
52 | CCOc1ccc(-c2cccc(C(=O)NCCc3cc(OC)cnc3F)n2)cn1 [compound 108] | > 1 | > 1
53 | CCOc1ccc(-c2cncc(C(=O)Nc3cc4c(F)ccc(OC)c4[nH]3)n2)cc1 [compound 76] | > 1 | > 1
54 | CCOc1ccc(-c2cncc(C(=O)NCCc3cc(OC)cc(OC)c3)n2)cc1 [compound 10] | < 0.5 | 0.5 to 1
55 | CCOc1ccc(-c2cncc(C(=O)N[C@H]3Cc4c(OC)cnc(F)c4C3)n2)cn1 [compound 83] | > 1 | > 1
56 | CCOc1ccc(-c2cncc(C(=O)NCCc3cc(OC)cc(OC)c3)n2)c(C)n1 [compound 31] | > 1 | > 1
57 | [2H]C([2H])([2H])Oc1ccc(-c2cncc(C(=O)NC[C@@H](O)c3cc(OC([2H])([2H])[2H])cc(OC([2H])([2H])[2H])c3)n2)cc1 [compound 99] | 0.5 to 1 | 
